System: 171881-019-R-J1-PDC tumor spheroid viability
Assay: Anticancer human tumor 171881-019-R-J1-PDC patient-derived invasive breast carcinoma cell line growth inhibition [PI3K]
Conditions: spheroids with HUVEC and MSC; for IC50: curve of first compound; for viability, T/C: stronger effect = lower value
Procedure, shortened: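 Agents were dosed from a top concentration near clinical Cmax (otherwise 10 microM) in half-log decrements, alone or combined with PI3K inhibitors. The spheroids contain tumor cells plus endothelial (HUVEC) and MSC stroma; viability is measured.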

[1] = second compound 0.00316 µM, first compound 0.0316 µM
[2] = second compound 0.00316 µM, first compound 0.1 µM
[3] = second compound 0.01 µM, first compound 0.0316 µM
[4] = second compound 0.01 µM, first compound 0.1 µM
[5] = second compound 0.0316 µM, first compound 0.0316 µM
[6] = second compound 0.0316 µM, first compound 0.1 µM
[7] = second compound 0.1 µM, first compound 0.0316 µM
[8] = second compound 0.1 µM, first compound 0.1 µM
[9] = second compound 0.316 µM, first compound 0.0316 µM
[10] = second compound 0.316 µM, first compound 0.1 µM
[11] = second compound 1 µM, first compound 0.0316 µM
[12] = second compound 1 µM, first compound 0.1 µM
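Further: spheroids exposed to compound for 7 days before viability read.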
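Wherever viability, T/C is given: 100% = DMSO vehicle-treated spheroids.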

C[C@@H](NC(=O)c1ncnc(N)c1Cl)c1ncc(C(=O)Nc2cc(C(F)(F)F)c(Cl)cn2)s1 + CC(Nc1ccc2c(c1)OCCn1cc(N3C(=O)OCC3C(F)F)nc1-2)C(N)=O
IC50 (second compound 0.00316 µM): 5950 nM | IC50 (second compound 0.01 µM): 2620 nM | IC50 (second compound 0.0316 µM): 399 nM | IC50 (second compound 0.1 µM): < 31.6 nM | IC50 (second compound 0.316 µM): < 31.6 nM | IC50 (second compound 1 µM): < 31.6 nM | viability, T/C [1]: 71.3% | viability, T/C [2]: 88.5% | viability, T/C (second compound 0.00316 µM, first compound 0.316 µM): 84.2% | viability, T/C (second compound 0.00316 µM, first compound 1 µM): 80.4% | viability, T/C (second compound 0.00316 µM, first compound 3.16 µM): 63.7% | viability, T/C (second compound 0.00316 µM, first compound 10 µM): 38.8% | viability, T/C [3]: 80.3% | viability, T/C [4]: 78.5% | viability, T/C (second compound 0.01 µM, first compound 0.316 µM): 65.8% | viability, T/C (second compound 0.01 µM, first compound 1 µM): 70.3% | viability, T/C (second compound 0.01 µM, first compound 3.16 µM): 44.4% | viability, T/C (second compound 0.01 µM, first compound 10 µM): 27.4% | viability, T/C [5]: 51.4% | viability, T/C [6]: 53.9% | viability, T/C (second compound 0.0316 µM, first compound 0.316 µM): 49.5% | viability, T/C (second compound 0.0316 µM, first compound 1 µM): 46.5% | viability, T/C (second compound 0.0316 µM, first compound 3.16 µM): 31.1% | viability, T/C (second compound 0.0316 µM, first compound 10 µM): 17.1% | viability, T/C [7]: 38.9% | viability, T/C [8]: 35.7% | viability, T/C (second compound 0.1 µM, first compound 0.316 µM): 33.8% | viability, T/C (second compound 0.1 µM, first compound 1 µM): 31.6% | viability, T/C (second compound 0.1 µM, first compound 3.16 µM): 20.1% | viability, T/C (second compound 0.1 µM, first compound 10 µM): 10.7% | viability, T/C [9]: 27% | viability, T/C [10]: 24.5% | viability, T/C (second compound 0.316 µM, first compound 0.316 µM): 24.9% | viability, T/C (second compound 0.316 µM, first compound 1 µM): 23% | viability, T/C (second compound 0.316 µM, first compound 3.16 µM): 13.5% | viability, T/C (second compound 0.316 µM, first compound 10 µM): 6.3% | viability, T/C [11]: 20.7% | viability, T/C [12]: 20.9% | viability, T/C (second compound 1 µM, first compound 0.316 µM): 19.3% | viability, T/C (second compound 1 µM, first compound 1 µM): 16.4% | viability, T/C (second compound 1 µM, first compound 3.16 µM): 9.28% | viability, T/C (second compound 1 µM, first compound 10 µM): 3.79%

Cn1ncnc1[C@H]1c2n[nH]c(=O)c3cc(F)cc(c23)N[C@@H]1c1ccc(F)cc1 + CC(Nc1ccc2c(c1)OCCn1cc(N3C(=O)OCC3C(F)F)nc1-2)C(N)=O
IC50 (second compound 0.00316 µM): > 100 nM | IC50 (second compound 0.01 µM): > 100 nM | IC50 (second compound 0.0316 µM): > 100 nM | IC50 (second compound 0.1 µM): < 0.316 nM | IC50 (second compound 0.316 µM): < 0.316 nM | IC50 (second compound 1 µM): < 0.316 nM | viability, T/C (second compound 0.00316 µM, first compound 0.000316 µM): 85.4% | viability, T/C (second compound 0.00316 µM, first compound 0.001 µM): 96.5% | viability, T/C (second compound 0.00316 µM, first compound 0.00316 µM): 95.2% | viability, T/C (second compound 0.00316 µM, first compound 0.01 µM): 91.6% | viability, T/C [1]: 95.9% | viability, T/C [2]: 70.6% | viability, T/C (second compound 0.01 µM, first compound 0.000316 µM): 79% | viability, T/C (second compound 0.01 µM, first compound 0.001 µM): 76.4% | viability, T/C (second compound 0.01 µM, first compound 0.00316 µM): 78.2% | viability, T/C (second compound 0.01 µM, first compound 0.01 µM): 65.5% | viability, T/C [3]: 81.5% | viability, T/C [4]: 71.5% | viability, T/C (second compound 0.0316 µM, first compound 0.000316 µM): 54% | viability, T/C (second compound 0.0316 µM, first compound 0.001 µM): 55.7% | viability, T/C (second compound 0.0316 µM, first compound 0.00316 µM): 51.5% | viability, T/C (second compound 0.0316 µM, first compound 0.01 µM): 52% | viability, T/C [5]: 55.3% | viability, T/C [6]: 48.7% | viability, T/C (second compound 0.1 µM, first compound 0.000316 µM): 37.8% | viability, T/C (second compound 0.1 µM, first compound 0.001 µM): 38.9% | viability, T/C (second compound 0.1 µM, first compound 0.00316 µM): 36.8% | viability, T/C (second compound 0.1 µM, first compound 0.01 µM): 38% | viability, T/C [7]: 36.8% | viability, T/C [8]: 34.5% | viability, T/C (second compound 0.316 µM, first compound 0.000316 µM): 26.2% | viability, T/C (second compound 0.316 µM, first compound 0.001 µM): 26.3% | viability, T/C (second compound 0.316 µM, first compound 0.00316 µM): 26.1% | viability, T/C (second compound 0.316 µM, first compound 0.01 µM): 25% | viability, T/C [9]: 26.2% | viability, T/C [10]: 21.1% | viability, T/C (second compound 1 µM, first compound 0.000316 µM): 21.7% | viability, T/C (second compound 1 µM, first compound 0.001 µM): 18.7% | viability, T/C (second compound 1 µM, first compound 0.00316 µM): 21.2% | viability, T/C (second compound 1 µM, first compound 0.01 µM): 18.6% | viability, T/C [11]: 19.8% | viability, T/C [12]: 17.7%

Source: PubChem BioAssay AID1963986 (Molecular Pharmacology Branch, DTP, NCI, 2024)
